These results are taken from patent publication US20080207573A1, “COMPOUNDS FOR TREATING VIRAL INFECTIONS” (priority 2006, published 2008).

The test system of the assay is HIV-1 laboratory strain, NL4-3. Nature of the assay: MT-4 Cytoprotection Assay (protection from HIV-induced cytopathic effect, WST-1 readout). The assay is classed as cell-based. The settings on record: Human immunodeficiency virus 1, NL43; list of representative compounds; read-out: EC50 of less than about 100 nm (representative compounds). The procedure: MT-4 Cytoprotection Assay
The HTLV-1 transformed T cell line, MT-4, is highly susceptible to HIV-1 infection. Anti-HIV-1 agents were evaluated in this target cell line by protection from the HIV-induced cytopathic effect. In this assay, viability of both HIV-1 and mock-infected cells was assessed in a […] assay that monitors the ability of metabolically-active cells to reduce the tetrazolium salt WST-1. Cytoprotection by antiviral compounds is indicated by the positive readout of increased WST-1 cleavage.
Briefly, exponentially growing MT-4 cells were mock-infected or batch-infected with the HIV-1 laboratory strain, NL4-3, at a multiplicity of infection of 0.0005. Following a two hour infection, the cells were washed to remove unbound virus and plated in the presence of increasing concentrations of compound. After four days incubation, cytoprotection in the infected cells and compound toxicity in mock-infected cells were analyzed using the WST-1 assay.
(Cytopathic effects are the visible damage that an infection or toxin causes in cultured cells.)

For `C=C(C)[C@@H]1CC[C@]2(C(=O)NCc3ccc(OC)cc3)CC[C@]3(C)[C@H](CC[C@@H]4[C@@]5(C)CC[C@H](OC(=O)CC(C)(C)C(=O)O)C(C)(C)[C@@H]5CC[C@]43C)[C@@H]12` [Compound 69], the EC50 is under 100 nM. Then `C=C(C)[C@@H]1CC[C@]2(C(=O)NCc3ccco3)CC[C@]3(C)[C@H](CC[C@@H]4[C@@]5(C)CC[C@H](OC(=O)CC(C)(C)C(=O)O)C(C)(C)[C@@H]5CC[C@]43C)[C@@H]12` [Compound 74], with under 100 nM. In the case of `C=C(C)[C@@H]1CC[C@]2(C(=O)NCc3ccncc3)CC[C@]3(C)[C@H](CC[C@@H]4[C@@]5(C)CC[C@H](OC(=O)CC(C)(C)C(=O)O)C(C)(C)[C@@H]5CC[C@]43C)[C@@H]12` [Compound 75] it was under 100 nM. In the case of `C=C(C)[C@@H]1CC[C@]2(C(=O)Nc3ccc(OC)cc3)CC[C@]3(C)[C@H](CC[C@@H]4[C@@]5(C)CC[C@H](OC(=O)CC(C)(C)C(=O)O)C(C)(C)[C@@H]5CC[C@]43C)[C@@H]12` [Compound 77] it was under 100 nM; in that of `C=C(C)[C@@H]1CC[C@]2(C(=O)NCc3ccccc3OC)CC[C@]3(C)[C@H](CC[C@@H]4[C@@]5(C)CC[C@H](OC(=O)CC(C)(C)C(=O)O)C(C)(C)[C@@H]5CC[C@]43C)[C@@H]12` [Compound 78], under 100 nM. As for `C=C(C)[C@@H]1CC[C@]2(C(=O)NCc3cccc(OC)c3)CC[C@]3(C)[C@H](CC[C@@H]4[C@@]5(C)CC[C@H](OC(=O)CC(C)(C)C(=O)O)C(C)(C)[C@@H]5CC[C@]43C)[C@@H]12` [Compound 79], the EC50 was under 100 nM. Then `C=C(C)[C@@H]1CC[C@]2(C(=O)NCc3ccc(Cl)cc3)CC[C@]3(C)[C@H](CC[C@@H]4[C@@]5(C)CC[C@H](OC(=O)CC(C)(C)C(=O)O)C(C)(C)[C@@H]5CC[C@]43C)[C@@H]12` [Compound 80], with under 100 nM; and `C=C(C)[C@@H]1CC[C@]2(C(=O)N[C@H](C)c3ccc(OC)cc3)CC[C@]3(C)[C@H](CC[C@@H]4[C@@]5(C)CC[C@H](OC(=O)CC(C)(C)C(=O)O)C(C)(C)[C@@H]5CC[C@]43C)[C@@H]12` [Compound 81], with under 100 nM.

Take `C=C(C)[C@@H]1CC[C@]2(C(=O)NCc3ccc4c(c3)OCO4)CC[C@]3(C)[C@H](CC[C@@H]4[C@@]5(C)CC[C@H](OC(=O)CC(C)(C)C(=O)O)C(C)(C)[C@@H]5CC[C@]43C)[C@@H]12` [Compound 82]: the EC50 is under 100 nM.

Regarding `C=C(C)[C@@H]1CC[C@]2(C(=O)NCc3ccc4c(c3)OCCO4)CC[C@]3(C)[C@H](CC[C@@H]4[C@@]5(C)CC[C@H](OC(=O)CC(C)(C)C(=O)O)C(C)(C)[C@@H]5CC[C@]43C)[C@@H]12` [Compound 84], the EC50 was under 100 nM. In the case of `C=C(C)[C@@H]1CC[C@]2(C(=O)NCc3ccc4occc4c3)CC[C@]3(C)[C@H](CC[C@@H]4[C@@]5(C)CC[C@H](OC(=O)CC(C)(C)C(=O)O)C(C)(C)[C@@H]5CC[C@]43C)[C@@H]12` [Compound 87] it was under 100 nM; in that of `C=C(C)[C@@H]1CC[C@]2(C(=O)NCCc3cccc(OC)c3)CC[C@]3(C)[C@H](CC[C@@H]4[C@@]5(C)CC[C@H](OC(=O)CC(C)(C)C(=O)O)C(C)(C)[C@@H]5CC[C@]43C)[C@@H]12` [Compound 88], under 100 nM. In the case of `C=C(C)[C@@H]1CC[C@]2(C(=O)NCCc3ccncc3)CC[C@]3(C)[C@H](CC[C@@H]4[C@@]5(C)CC[C@H](OC(=O)CC(C)(C)C(=O)O)C(C)(C)[C@@H]5CC[C@]43C)[C@@H]12` [Compound 91] it was under 100 nM; in that of `C=C(C)[C@@H]1CC[C@]2(C(=O)NCCc3ccccn3)CC[C@]3(C)[C@H](CC[C@@H]4[C@@]5(C)CC[C@H](OC(=O)CC(C)(C)C(=O)O)C(C)(C)[C@@H]5CC[C@]43C)[C@@H]12` [Compound 92], under 100 nM; in that of `C=C(C)[C@@H]1CC[C@]2(C(=O)NCCc3cccnc3)CC[C@]3(C)[C@H](CC[C@@H]4[C@@]5(C)CC[C@H](OC(=O)CC(C)(C)C(=O)O)C(C)(C)[C@@H]5CC[C@]43C)[C@@H]12` [Compound 93], under 100 nM. For the compound `C=C(C)[C@@H]1CC[C@]2(C(=O)NCc3cccc4ccccc34)CC[C@]3(C)[C@H](CC[C@@H]4[C@@]5(C)CC[C@H](OC(=O)CC(C)(C)C(=O)O)C(C)(C)[C@@H]5CC[C@]43C)[C@@H]12` [Compound 94], the EC50 was under 100 nM. `C=C(C)[C@@H]1CC[C@]2(C(=O)NCc3ccoc3)CC[C@]3(C)[C@H](CC[C@@H]4[C@@]5(C)CC[C@H](OC(=O)CC(C)(C)C(=O)O)C(C)(C)[C@@H]5CC[C@]43C)[C@@H]12` [Compound 95]: the EC50 is under 100 nM.

Take `C=C(C)[C@@H]1CC[C@]2(C(=O)NCCOc3ccc(OC)cc3)CC[C@]3(C)[C@H](CC[C@@H]4[C@@]5(C)CC[C@H](OC(=O)CC(C)(C)C(=O)O)C(C)(C)[C@@H]5CC[C@]43C)[C@@H]12` [Compound 97]: the EC50 was under 100 nM. Then `C=C(C)[C@@H]1CC[C@]2(C(=O)NCc3ccc(N(C)C)cc3)CC[C@]3(C)[C@H](CC[C@@H]4[C@@]5(C)CC[C@H](OC(=O)CC(C)(C)C(=O)O)C(C)(C)[C@@H]5CC[C@]43C)[C@@H]12` [Compound 99], with under 100 nM. Then `C=C(C)[C@@H]1CC[C@]2(C(=O)NCCc3ccc(C(=O)O)cc3)CC[C@]3(C)[C@H](CC[C@@H]4[C@@]5(C)CC[C@H](OC(=O)CC(C)(C)C(=O)O)C(C)(C)[C@@H]5CC[C@]43C)[C@@H]12` [Compound 100], with under 100 nM. For the compound `C=C(C)[C@@H]1CC[C@]2(C(=O)NCc3c(C)coc3C(F)(F)F)CC[C@]3(C)[C@H](CC[C@@H]4[C@@]5(C)CC[C@H](OC(=O)CC(C)(C)C(=O)O)C(C)(C)[C@@H]5CC[C@]43C)[C@@H]12` [Compound 101], the half-maximal effective concentration (EC50) was under 100 nM.

On to `C=C(C)[C@@H]1CC[C@]2(C(=O)NCCCc3ccc(OC)c(OC)c3)CC[C@]3(C)[C@H](CC[C@@H]4[C@@]5(C)CC[C@H](OC(=O)CC(C)(C)C(=O)O)C(C)(C)[C@@H]5CC[C@]43C)[C@@H]12` [Compound 102], for which the EC50 is under 100 nM. In the case of `C=C(C)[C@@H]1CC[C@]2(C(=O)NCc3cc(OC)c(OC)c(OC)c3)CC[C@]3(C)[C@H](CC[C@@H]4[C@@]5(C)CC[C@H](OC(=O)CC(C)(C)C(=O)O)C(C)(C)[C@@H]5CC[C@]43C)[C@@H]12` [Compound 103] it was under 100 nM. In the case of `C=C(C)[C@@H]1CC[C@]2(C(=O)NCCCc3ccc(OC)cc3)CC[C@]3(C)[C@H](CC[C@@H]4[C@@]5(C)CC[C@H](OC(=O)CC(C)(C)C(=O)O)C(C)(C)[C@@H]5CC[C@]43C)[C@@H]12` [Compound 104] it was under 100 nM. In the case of `C=C(C)[C@@H]1CC[C@]2(C(=O)NC(C)c3ccccn3)CC[C@]3(C)[C@H](CC[C@@H]4[C@@]5(C)CC[C@H](OC(=O)CC(C)(C)C(=O)O)C(C)(C)[C@@H]5CC[C@]43C)[C@@H]12` (stereo partly shown) [Compound 105] it was under 100 nM.

Usually EC50 stands for the midpoint of the concentration-response curve.
